According to patent publication US7019139B2, “Quinolinones and uses thereof” (ARIAD Pharmaceuticals, Inc., priority 2001, dated 2006):

Assay: Hydroxyapatite assay (hydroxyapatite adsorption chromatography, bone-targeting potential)
Assay type: binding
Details: corrected K = (retention time-void time)/void on TSK-Gel HA 1000 HPLC column; linear gradient 10 mM to 500 mM sodium phosphate, 0.15 N NaCl, pH 6.8
Procedure: Hydroxyapatite is the principal mineral component of bone. Hydroxyapatite adsorption chromatography is used as an assay to evaluate the bone-targeting potential of both individual bone-targeting moieties (“monomers”) and of pharmaceuticals incorporating bone-targeting groups.
This K value is corrected using two reference compounds to correct from inter-column and inter-system variation to obtain a K′ value.
Reference Compounds: K′ values were determined for known bone targeted compounds, the bisphosphonate, alendronate and tetracycline.

Question: Which “K′ value” does the source give for `NCCCC(O)(P(=O)(O)O)P(=O)(O)O` [Alendronate, alendronate] here?
Answer: 3.7
